Where two headings read alike, the source gives them in different places.
Experiments:
[1] = tested on: Puccinia triticina; experiment: Wheat brown rust, whole-plant fungicidal activity (PUCCRT); assay type: in vivo, Puccinia triticina on wheat plants (variety 'Yuma'); conditions: 24 h, 1DP (1 day protectant), read-out: % Disease Control Rating PUCCRT
Summary of the method: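 Wheat 'Yuma' seedlings at first-leaf stage sprayed to run-off with compound from acetone stock diluted in nine volumes water containing 110 ppm Triton X-100, then inoculated with Puccinia triticina spores. Held overnight in dark dew room at 100% RH, then greenhouse for disease development.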

[2] = tested on: Zymoseptoria tritici; experiment: Septoria leaf blotch of wheat, whole-plant fungicidal activity (SEPTTR); assay type: in vivo, Zymoseptoria tritici on wheat plants (variety 'Yuma'); conditions: read-out: % Disease Control Rating SEPTTR
Summary of the method: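 Compounds in acetone, diluted with nine volumes of water containing 110 ppm Triton X-100, were sprayed to run-off on 'Yuma' wheat seedlings at full first-leaf emergence. Spore inoculation was 3 days before (3DC, curative) or 1 day after (1DP, protectant) treatment, then 3 days at 100% RH and greenhouse. First-leaf disease severity (0–100%) was scored relative to untreated plants as percent control.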

[3] = tested on: Phakopsora pachyrhizi; experiment: Asian soybean rust, whole-plant fungicidal activity (PHAKPA); assay type: in vivo; conditions: read-out: % Disease Control Rating PHAKPA
Summary of the method: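 Ten-day-old 'Williams 82' soybean seedlings sprayed to run-off with compound in acetone/water (1:9, 0.011% Tween-20), air-dried, then inoculated; 24 h dark dew room at 100% RH, then growth room. Disease severity scored 0–100% on sprayed leaves; percent control relative to untreated plants.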

[4] = tested on: Rhynchosporium commune; experiment: Leaf blotch of barley, whole-plant fungicidal activity (RHYNSE); assay type: in vivo; conditions: 24 h, 1DP (1 day protectant), read-out: % Disease Control Rating RHYNSE
Summary of the method: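 Barley cv. 'Harrington' at full first-leaf emergence (7-10 seedlings per pot) was sprayed to run-off with compound in acetone plus nine volumes of water containing 110 ppm Triton X-100, air-dried, then inoculated with spore suspension. Plants spent two days in a dark dew room at 100% RH, then moved to greenhouse for disease development.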

| SMILES | pest or weed control at 200 ppm [1] [%] | pest or weed control at 200 ppm ([2]; 24 h, 1DP (1 day protectant)) [%] | pest or weed control at 200 ppm ([2]; 72 h, 3DC (3 day curative)) [%] | pest or weed control at 200 ppm ([3]; 24 h, 1DP (1 day protectant)) [%] | pest or weed control at 200 ppm ([3]; 72 h, 3DC (3 day curative)) [%] | pest or weed control at 200 ppm [4] [%] |
| --- | --- | --- | --- | --- | --- | --- |
| CCN(/C=N/c1cc(C)c(C(=O)CC2CCCCC2)cc1C)CC [Compound 58] | > 85 | 50 to 85 | < 20 | > 85 | > 85 | < 20 |
| Cc1cc(C(=O)CC2CCCCC2)c(C)cc1/N=C/N(C)C(C)C [Compound 59] | > 85 | > 85 | > 85 | > 85 | > 85 | > 85 |
| Cc1cc(C(=O)CC2CCCCC2)c(C)cc1/N=C/N(C)C1CC1 [Compound 60] | > 85 | < 20 | < 20 | < 20 | < 20 | < 20 |
| CCN(C)/C(S)=N/c1cc(C)c(C(=O)CC2CCCCC2)cc1C [Compound 61] | > 85 | > 85 | < 20 | > 85 | > 85 | > 85 |
| CCN(C)/C=N/c1cc(C)c(C(=O)Cc2ccc(C)cc2C)cc1C [Compound 62] | > 85 | > 85 | 50 to 85 | > 85 | 20 to 50 | > 85 |
| CCN(C)/C=N/c1cc(C)c(C(=O)Cc2ccc(C(F)(F)F)cc2)cc1C [Compound 63] | > 85 | > 85 | 20 to 50 | > 85 | > 85 | > 85 |
| CCCc1ccc(CC(=O)c2cc(C)c(/N=C/N(C)CC)cc2C)cc1 [Compound 64] | > 85 | 50 to 85 | < 20 | > 85 | > 85 | > 85 |
| CCN(C)/C=N/c1cc(C)c(C(=O)Cc2ccc(SC(F)(F)F)cc2)cc1C [Compound 65] | > 85 | > 85 | 20 to 50 | > 85 | > 85 | > 85 |
| CCN(C)/C=N/c1cc(C)c(C(=O)Cc2ccc(C(C)C)cc2)cc1C [Compound 66] | > 85 | > 85 | < 20 | > 85 | > 85 | > 85 |
| CCN(C)/C=N/c1cc(C)c(C(=O)Cc2ccc(C(C)(C)C)cc2)cc1C [Compound 67] | > 85 | > 85 | < 20 | > 85 | > 85 | > 85 |
| CCN(C)/C=N/c1cc(C)c(C(=O)Cc2ccc(F)cc2)cc1C [Compound 68] | > 85 | > 85 | < 20 | > 85 | > 85 | > 85 |
| CCN(C)/C=N/c1cc(C)c(C(=O)Cc2ccc(Cl)cc2)cc1C [Compound 69] | > 85 | 50 to 85 | 50 to 85 | > 85 | > 85 | 50 to 85 |
| CCc1cccc(CC(=O)c2cc(C)c(/N=C/N(C)CC)cc2C)c1 [Compound 70] | > 85 | 50 to 85 | < 20 | > 85 | > 85 | > 85 |
| CCN(C)/C=N/c1cc(C)c(C(=O)Cc2ccc3c(c2)CCC3)cc1C [Compound 71] | > 85 | 20 to 50 | < 20 | > 85 | > 85 | > 85 |
| CCN(C)/C=N/c1cc(OC)c(C(=O)CC2CCCCC2)cc1C [Compound 72] | > 85 | < 20 | < 20 | > 85 | > 85 | < 20 |
| Cc1cc(C(=O)CC2CCCC2)c(C)cc1/N=C/N(C)C [Compound 73, (E)-N′-(4-(2-cyclopentylacetyl)-2,5-dimethylphenyl)-N,N-dimethylformimidamide] | > 85 | < 20 | < 20 | > 85 | > 85 | < 20 |
| CCN(C)/C=N/c1cc(C)c(C(=O)CC2CCCC2)cc1OC [Compound 74] | > 85 | < 20 | < 20 | > 85 | > 85 | 50 to 85 |
| CCN(C)/C=N/c1ccc(C(=O)CC2CCCC2)cc1C [Compound 75] | > 85 | < 20 | < 20 | 20 to 50 | > 85 | < 20 |
| Cc1cc(C(=O)Cc2c(F)cc(F)cc2F)c(C)cc1/N=C/N(C)C [Compound 76] | > 85 | < 20 | < 20 | > 85 | – | < 20 |
| CCN(/C=N/c1cc(C)c(C(=O)CC2CCCC2)cc1C)CC [Compound 77] | > 85 | < 20 | < 20 | > 85 | > 85 | 20 to 50 |
| CCN(/C=N/c1cc(C)c(C(=O)Cc2c(F)cc(F)cc2F)cc1C)CC [Compound 78] | > 85 | < 20 | < 20 | > 85 | > 85 | < 20 |
| Cc1cc(C(=O)Cc2c(F)cc(F)cc2F)c(C)cc1/N=C/N(C)C(C)C [Compound 79] | > 85 | < 20 | < 20 | > 85 | – | 50 to 85 |
| Cc1cc(C(=O)CC2CCCC2)c(C)cc1/N=C/N1CCCCC1 [Compound 80] | > 85 | 50 to 85 | < 20 | > 85 | > 85 | > 85 |

From US20240000075A1, “FUNGICIDAL ARYL AMIDINES” (CORTEVA AGRISCIENCE LLC, priority 2020, published 2024)
